Test results: patent US20210353579A1, “HIGH PENETRATION COMPOSITIONS AND USES THEREOF” (Techfields Pharma Co., Ltd., priority 2006, published 2021)
Values after ≈ are worked out from the molar mass of the structure shown. Each block holds one compound with its values, some of them ahead of it.

Legend:
[1] = Solubility in water / aqueous solubility of HPPs and parent drugs; conditions: for solubility: water
human skin tissue = conditions: pH 7.4; for In vitro penetration rate (apparent flux), parent compounds: human, 20 %
[2] = Plasma levels after transdermal administration to hairless mice; assay type: in vivo; conditions: for t, time to peak plasma level after parent compound: parent compound administered (time when taken orally); for Peak plasma concentration after parent compound: parent compound administered, hairless mice; for Peak plasma concentration of parent compound after prodrug compound / t, time to peak plasma level of parent compound after prodrug compound: mouse, in vivo
Protocol: Tested compounds (20% solution or suspension in 1 mL isopropanol) are administered transdermally to the skin of intact hairless mice. The plasma levels of the parent compounds are determined by HPLC.

mice = experiment: Analgesic activity, acetic acid writhing; assay type: in vivo; conditions: 30 min before acetic acid
Protocol: The prodrug compounds are administered either transdermally or orally. The parent compounds are administered orally. The number of writhing that occurred when mice are administered the acetic acid solution are counted, and the rate of inhibition based on the control group which was not pretreated with any test compounds is calculated. […] The A group is the control group.

rats = experiment: Antipyretic activity, E. coli suspension as pyrogen; assay type: in vivo; conditions: in °C (unit assumed)
Protocol: Rats are administered with sterilized E. coli suspension as a pyrogen. Each group of rats are administered with a prodrug compounds or parent compounds at a dosage specified below. The prodrug compounds are administered either orally or transdermally. The parent compounds are administered orally.

rat = conditions: rats
Protocol: The acute toxicity of the prodrug compounds and parent compounds are measured by LD50 of rat.
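Throughout, for LD50 of HPP: acute toxicity in rats expressed as LD50, determined for both prodrugs and their parent compounds.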

SMILES: Cc1cnc(NC(=O)C2=C(O)c3ccccc3S(=O)(=O)N2C)s1 [Meloxicam, meloxicam, reference compound]
solubility [1]: < 100 µg/mL
In vitro penetration rate (apparent flux), parent compounds (human skin tissue): <1 μg/cm^2/h
t, time to peak plasma level after parent compound [2]: 2 to 4 h
Peak plasma concentration after parent compound [2]: 0.1 mg/L

SMILES: O=C(O)CCc1nc(-c2ccccc2)c(-c2ccccc2)o1 [Oxaprozin, oxaprozin, reference compound]
solubility [1]: 100 µg/mL (≈ 341 µM)
In vitro penetration rate (apparent flux), parent compounds (human skin tissue): 30 μg/cm^2/h
t, time to peak plasma level after parent compound [2]: 2 to 4 h
Peak plasma concentration after parent compound [2]: 10 mg/L

SMILES: CC(C(=O)O)c1ccc(N2CC=CC2)c(Cl)c1 (stereo not shown) [Pirprofen, pirprofen, reference compound]
solubility [1]: 100 µg/mL (≈ 397 µM)
In vitro penetration rate (apparent flux), parent compounds (human skin tissue): 30 μg/cm^2/h
t, time to peak plasma level after parent compound [2]: 2 to 4 h
Peak plasma concentration after parent compound [2]: 10 mg/L

SMILES: CC(=O)O.CCN(CC)CCOC(=O)C(C)c1cccc(C(=O)c2ccccc2)c1 (stereo not shown) [diethylaminoethyl 2-(3-benzoylphenyl) propionate.AcOH]
In vitro penetration rate (apparent flux), prodrug compounds (human skin tissue): 1150 μg/cm^2/h
% (rate of writhing inhibition) (mice; 50 mg/kg transdermally): 59%
No. of Writhing (mice; 50 mg/kg transdermally): 14.2
Peak plasma concentration of parent compound after prodrug compound [2]: 20 mg/L
t, time to peak plasma level of parent compound after prodrug compound [2]: 40 min
body temperature, t = 0 min (rats; 50 mg/kg transdermally): 37.28 ± 0.06
body temperature, t = 90 min (rats; 50 mg/kg transdermally): 36.65 ± 0.06
body temperature, t = 180 min (rats; 50 mg/kg transdermally): 36.58 ± 0.08
body temperature, t = 270 min (rats; 50 mg/kg transdermally): 36.60 ± 0.07
LD50 of HPP (rat): 300 mg/kg

SMILES: CC(=O)O.CCN(CC)CCOC(=O)C(C)c1cccc(Oc2ccccc2)c1 (stereo not shown) [diethylaminoethyl 2-(3-phenoxyphenyl) propionate.AcOH]
In vitro penetration rate (apparent flux), prodrug compounds (human skin tissue): 1250 μg/cm^2/h
% (rate of writhing inhibition) (mice; 50 mg/kg transdermally): 60%
No. of Writhing (mice; 50 mg/kg transdermally): 14.0
Peak plasma concentration of parent compound after prodrug compound [2]: 20 mg/L
t, time to peak plasma level of parent compound after prodrug compound [2]: 40 min
body temperature, t = 0 min (rats; 50 mg/kg transdermally): 37.28 ± 0.06
body temperature, t = 90 min (rats; 50 mg/kg transdermally): 36.65 ± 0.06
body temperature, t = 180 min (rats; 50 mg/kg transdermally): 36.58 ± 0.08
body temperature, t = 270 min (rats; 50 mg/kg transdermally): 36.56 ± 0.07
LD50 of HPP (rat): 1500 mg/kg

SMILES: CC(=O)O.CCN(CC)CCOC(=O)C(C)c1ccc2oc(-c3ccc(Cl)cc3)nc2c1 (stereo not drawn) [diethylaminoethyl 2-(4-chlorophenyl)-α-methyl-5-benzoxazoleacetate.AcOH]
In vitro penetration rate (apparent flux), prodrug compounds (human skin tissue): 4000 μg/cm^2/h
% (rate of writhing inhibition) (mice; 100 mg/kg transdermally): 51%
No. of Writhing (mice; 100 mg/kg transdermally): 17.1
Peak plasma concentration of parent compound after prodrug compound [2]: 2000 mg/L
t, time to peak plasma level of parent compound after prodrug compound [2]: 50 min
body temperature, t = 0 min (rats; 100 mg/kg transdermally): 37.25 ± 0.07
body temperature, t = 90 min (rats; 100 mg/kg transdermally): 36.82 ± 0.06
body temperature, t = 180 min (rats; 100 mg/kg transdermally): 36.70 ± 0.05
body temperature, t = 270 min (rats; 100 mg/kg transdermally): 36.50 ± 0.08
LD50 of HPP (rat): 1300 mg/kg

SMILES: CC(=O)O.CCN(CC)CCOC(=O)Cc1ccc(CC(C)C)cc1 [diethylaminoethyl p-isobutylphenylacetate.AcOH]
Solubility of HPP ([1]; medium not given): >250000 µg/mL

SMILES: CC(=O)O.CC(C)Cc1ccc(C(C)C(=O)OCCN(C)C)cc1 (stereo not shown) [dimethylaminoethyl 2-(ρ-isobutylphenyl) propionate.AcOH]
LD50 of HPP (rat): 1600 mg/kg

SMILES: CC(=O)Oc1ccccc1C(=O)OCCN(C)C [dimethylaminoethyl acetylsalicylate.AcOH]
LD50 of HPP (rat): 2200 mg/kg

Other lines, results leading:

solubility [1]: 100 µg/mL (≈ 384 µM)
In vitro penetration rate (apparent flux), parent compounds (human skin tissue): 30 μg/cm^2/h
t, time to peak plasma level after parent compound [2]: 2 to 4 h
Peak plasma concentration after parent compound [2]: 10 mg/L
SMILES: CC(C(=O)O)c1ccc(C(=O)c2cccs2)cc1 (stereo not shown) [Suprofen, suprofen, reference compound]

solubility [1]: 100 µg/mL (≈ 384 µM)
In vitro penetration rate (apparent flux), parent compounds (human skin tissue): 30 μg/cm^2/h
t, time to peak plasma level after parent compound [2]: 2 to 4 h
Peak plasma concentration after parent compound [2]: 10 mg/L
SMILES: CC(C(=O)O)c1ccc(C(=O)c2ccccc2)s1 (stereo not shown) [Tiaprofenic acid, tiaprofenic acid, reference compound]

solubility [1]: 100 µg/mL (≈ 335 µM)
In vitro penetration rate (apparent flux), parent compounds (human skin tissue): 30 μg/cm^2/h
t, time to peak plasma level after parent compound [2]: 2 to 4 h
Peak plasma concentration after parent compound [2]: 10 mg/L
SMILES: CC(C(=O)O)c1ccc2c(c1)CC(=O)c1ccccc1S2 (stereo not shown) [Zaltoprofen, zaltoprofen, reference compound]

solubility [1]: < 100 µg/mL
SMILES: Cc1c(Cl)cccc1Nc1ccccc1C(=O)O [tolfenamic acid]
